US6677338B2, “Serotonin transport inhibitors” (President and Fellows of Harvard College, priority 1997, dated 2004)
“Also recorded” adds a separate entry of the source. Where two headings read alike, the source gives them in different places.

Legend:
human SERT [1] = molecular target: T1, human SERT (Homo sapiens, UniProt P31645); experiment: (3H)serotonin transport in HEK-293 cells transfected with the human SERT; format: cell-based; details: for blocked (3H)serotonin transport (in words): comparable to imipramine, fluoxetine and amitriptyline
T1 construct: expressed in transfected cells; host or cells: HEK-293 (stably or transiently transfected, pcDNA3.1 vector)
T1 sequence (P31645 whole entry): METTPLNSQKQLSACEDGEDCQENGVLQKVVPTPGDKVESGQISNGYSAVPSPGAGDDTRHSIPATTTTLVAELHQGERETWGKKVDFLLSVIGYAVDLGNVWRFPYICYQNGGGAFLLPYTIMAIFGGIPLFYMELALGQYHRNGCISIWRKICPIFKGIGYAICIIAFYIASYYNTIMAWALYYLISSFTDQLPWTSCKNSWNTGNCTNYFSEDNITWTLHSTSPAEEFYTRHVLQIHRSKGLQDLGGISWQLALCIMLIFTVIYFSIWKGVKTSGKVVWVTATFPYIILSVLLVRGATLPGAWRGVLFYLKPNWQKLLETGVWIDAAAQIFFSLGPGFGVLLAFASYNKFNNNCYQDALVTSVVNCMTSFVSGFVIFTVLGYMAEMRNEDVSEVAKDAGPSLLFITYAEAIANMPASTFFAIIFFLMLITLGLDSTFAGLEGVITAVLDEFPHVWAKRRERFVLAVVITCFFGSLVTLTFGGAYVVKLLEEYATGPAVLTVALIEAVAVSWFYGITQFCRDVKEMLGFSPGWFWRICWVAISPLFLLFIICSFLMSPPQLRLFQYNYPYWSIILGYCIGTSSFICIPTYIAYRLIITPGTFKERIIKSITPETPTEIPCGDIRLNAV

human SERT [2] = molecular target: T1, human SERT; experiment: (3H)citalopram binding in HEK-293 cells transfected with the human SERT
[3] = molecular target: T2, Serotonin transporter (SERT) (Macaca mulatta, UniProt Q9MYX0); experiment: (3H)citalopram competition binding in monkey striatum homogenates; details: for SERT/DAT Selectivity: fold selectivity for serotonin over dopamine transporter
T2 construct: in monkey striatum homogenates; from tissue; host or cells: monkey striatum homogenate
T2 sequence (Q9MYX0 whole entry): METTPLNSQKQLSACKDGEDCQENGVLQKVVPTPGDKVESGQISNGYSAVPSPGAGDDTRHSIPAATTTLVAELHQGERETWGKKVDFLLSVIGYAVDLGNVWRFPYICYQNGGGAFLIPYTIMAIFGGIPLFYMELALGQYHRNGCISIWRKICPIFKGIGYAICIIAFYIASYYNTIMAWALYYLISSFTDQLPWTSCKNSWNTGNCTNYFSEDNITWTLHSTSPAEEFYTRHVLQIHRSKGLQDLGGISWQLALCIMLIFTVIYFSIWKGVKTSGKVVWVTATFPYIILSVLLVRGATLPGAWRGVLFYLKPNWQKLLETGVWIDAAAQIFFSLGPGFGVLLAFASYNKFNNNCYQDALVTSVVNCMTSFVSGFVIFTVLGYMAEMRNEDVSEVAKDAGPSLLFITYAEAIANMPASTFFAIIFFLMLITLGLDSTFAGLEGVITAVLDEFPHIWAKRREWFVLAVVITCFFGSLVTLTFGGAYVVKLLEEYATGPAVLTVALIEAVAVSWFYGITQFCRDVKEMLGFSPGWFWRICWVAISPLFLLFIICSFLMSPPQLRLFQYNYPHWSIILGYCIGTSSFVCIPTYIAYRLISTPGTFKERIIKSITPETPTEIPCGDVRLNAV
Method: Initial screening procedures for non-amines were conducted in primate striatum, a standard source of brain transporters for drug screening and for generating structure-activity relationships for this series (Table 1). […] The binding experiments were terminated by rapid filtration and radioactivity measured as described above. […] The experiments were performed in triplicate and each value is the mean ±S.E. of 2-5 independent experiments.
(§1) Values were determined by fitting data to the equation for competitive binding with EBDA computer program. Data represent the mean ±S.D. of two or more experiments.

[4] = molecular target: T3, Dopamine transporter (DAT) (Macaca fascicularis, UniProt Q9GJT6); experiment: (3H)CFT competition binding in monkey striatum homogenates
T3 construct: in monkey striatum homogenates; from tissue; host or cells: monkey striatum homogenate
T3 sequence (Q9GJT6 whole entry): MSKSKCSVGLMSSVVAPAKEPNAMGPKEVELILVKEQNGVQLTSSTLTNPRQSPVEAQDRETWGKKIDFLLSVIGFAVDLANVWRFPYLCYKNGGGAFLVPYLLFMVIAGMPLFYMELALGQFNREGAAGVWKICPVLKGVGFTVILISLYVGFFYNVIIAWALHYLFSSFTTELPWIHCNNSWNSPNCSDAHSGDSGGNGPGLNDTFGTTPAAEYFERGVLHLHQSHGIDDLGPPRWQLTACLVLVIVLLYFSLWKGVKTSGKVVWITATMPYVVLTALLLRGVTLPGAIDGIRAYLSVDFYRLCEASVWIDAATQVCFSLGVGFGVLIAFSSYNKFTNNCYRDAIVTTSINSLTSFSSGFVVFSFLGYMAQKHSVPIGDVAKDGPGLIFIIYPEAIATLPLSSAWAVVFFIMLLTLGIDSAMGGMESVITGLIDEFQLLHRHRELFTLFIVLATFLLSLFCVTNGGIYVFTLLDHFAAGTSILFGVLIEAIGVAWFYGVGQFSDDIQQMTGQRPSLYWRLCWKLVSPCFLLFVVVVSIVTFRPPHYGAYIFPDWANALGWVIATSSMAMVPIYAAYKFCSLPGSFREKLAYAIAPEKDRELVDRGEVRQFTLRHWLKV
Method: as §1

[5] = (3H)serotonin transport Ki, HEK-293 cells with human SERT, 20 nM (3H)serotonin, mean ± S.E.M.
[6] = monkey striatum, 1 nM (3H)CFT, mean ± S.D., read-out: Dopamine transporter (DAT) IC50
[7] = HEK-293 cells with human SERT, 1 nM (3H)citalopram, mean ± S.E.M., read-out: (3H)citalopram binding Ki

SMILES	Ki (human SERT [1]; [5]) [nM]	Ki (human SERT [2]) [nM]	IC50 [3] [nM]	selectivity for the serotonin over the dopamine transporter (in words) ([3]; monkey striatum)	SERT/DAT Selectivity ([3]; monkey striatum)	IC50 [4, 6] [nM]	blocked (3H)serotonin transport (in words) (human SERT [1])	melting point [°C]	Ki (human SERT [1]; HEK-293 cells with human SERT, 20 nM (3H)serotonin, mean ± S.E.M., read-out: (3H)serotonin transport Ki) [nM]	Ki (human SERT [2]; [7]) [nM]	reduction of potency for the SERT on substitution of the 8-oxa with an 8-carba ([3]; monkey striatum, O-1391 versus O-1072) [fold]	IC50 [4] [nM]	Ki (human SERT [1]) [nM]
CC#Cc1ccc([C@@H]2C[C@@H]3CC[C@@H](O3)[C@H]2C(=O)OC)cc1 (relative stereo) [Compound O-1585, 2β-carbomethoxy-3α-(4′-propynylphenyl)-8-oxabicyclo(3.2.1)octane]	56.7 ± 10.4	76.1 ± 10.5	152 ± 26.5	moderately selective; also recorded: modest	3	446 ± 94	–	–	–	–	–	–	–
C=C(C)c1ccc(C2CC3CCC(O3)C2C(=O)OC)cc1 (racemic) [Compound O-1739, 2β-carbomethoxy-3β-(4-isopropenylphenyl)-8-oxabicyclo(3.2.1)octane]	33 ± 2	17.7 ± 6.3	19.8 ± 0.75	–	52	1020	low nanomolar range	72.3 to 73.3	–	–	–	–	–
COC(=O)C1C(c2ccc3ccccc3c2)CC2CCC1N2C (stereo not drawn) [Compound O-1228, N-methyl-2β-carbomethoxy-3-(2′-naphthyl)-8-azabicyclo(3.2.1)octane]	–	–	–	–	–	0.57 ± 0.34	–	–	4.57 ± 0.37	3.26 ± 0.26	–	–	–
COC(=O)[C@@H]1[C@H]2CC[C@H](C2)C[C@@H]1c1ccc(Cl)c(Cl)c1 (racemic) [Compound O-1391, 2-β-carbomethoxy-3-β-(3,4-dichlorophenyl)bicyclo(3.2.1)octane]	11.1 ± 7.44	10 ± 4.3	33.9 ± 1.85	relatively non-selective	0.4	13.5 ± 0.9	low nanomolar range	–	–	–	7	–	–
C=C(C)c1ccc([C@@H]2C[C@@H]3CC[C@@H](O3)[C@H]2C(=O)OC)cc1 (relative stereo) [Compound O-1738, 2β-carbomethoxy-3α-(4-isopropenylphenyl)-8-oxabicyclo(3.2.1)octane]	376 ± 74	218 ± 45.1	158 ± 23	moderately selective	6	912 ± 100	–	–	–	–	–	–	–
COC(=O)[C@H]1[C@@H](c2ccc(Cl)c(Cl)c2)C[C@@H]2CC[C@H]1O2 (relative stereo) [Compound O-1072, 2-β-carbomethoxy-3-β-(3,4-dichlorophenyl)-8-oxabicyclo(3.2.1)octane]	10 to 20	–	4.66 ± 1.24	relatively non-selective	0.8	–	low nanomolar range	–	–	–	–	3.88 ± 0.93	–
COC(=O)[C@@H]1[C@H]2CC[C@H](C2)C[C@@H]1c1ccc2ccccc2c1 (relative stereo) [Compound O-1669, 2β-carbomethoxy-3β-(2-naphthyl)-8-bicyclo(3.2.1)octane]	28 ± 2	289 ± 150	72.5 ± 12.6	relatively non-selective	0.4	–	low nanomolar range	–	–	–	–	27.1 ± 0.1	–
C=C(C)c1ccc(C2CC3CCC(O3)C2C(=O)OC)cc1 (single isomer, unassigned) [Compound O-1809, 2β-carbomethoxy-3β-(4-isopropenylphenyl)-8-oxabicyclo(3.2.1)octane]	16 ± 4	9.6 ± 1.3	10.2 ± 2.1	–	99	1010	low nanomolar range	–	–	–	–	–	–
COC(=O)[C@@H]1[C@H]2CC[C@H](C2)C[C@H]1c1ccc2ccccc2c1 (relative stereo) [Compound O-1670, 2β-carbomethoxy-3α-(2-naphthyl)-8-bicyclo(3.2.1)octane]	–	–	77.7 ± 13.5	relatively non-selective	0.3	–	–	–	–	303 ± 8.7	–	21.2 ± 4.1	425 ± 332
COC(=O)[C@H]1[C@@H](c2ccc3ccccc3c2)C[C@@H]2CC[C@H]1N2C (relative stereo) [Compound O-1229, N-methyl-2β-carbomethoxy-3β(2′-naphthyl)-8-azabicyclo(3.2.1)octane]	0.14 ± 0.07	1.42 ± 0.78	2.19 ± 0.18	–	0.2	–	–	–	–	–	–	0.49 ± 0.04	–
CC#Cc1ccc([C@H]2C[C@@H]3CC[C@@H](O3)[C@H]2C(=O)OC)cc1 (relative stereo) [Compound O-1577]	63 ± 16.8	32.6 ± 7.88	72.4	modest	8	545 ± 76	–	142 to 143	–	–	–	–	–
